Assay results as given in US7906122B2 (priority 2003, dated 2011).

Tested on: the 3 viral strains (pooled HN)
Design: species or system BALB/c mice
Conditions: mouse, in vivo

In the case of “N-palmitoyl D-erythro sphingosyl carbamoyl-spermine [CCS]”, the “immunogenicity of CCS alone compared to CCS/Chol as the vaccine carrier” value is reported as “no difference in immunogenicity”.
